{"source": "patent US20240400564A1", "about": "(Syndax Pharmaceuticals, Inc, priority 2021, published 2024)", "key": {"[1]": {"target": "hERG (Homo sapiens, UniProt Q12809)", "sequence (Q12809 whole entry)": "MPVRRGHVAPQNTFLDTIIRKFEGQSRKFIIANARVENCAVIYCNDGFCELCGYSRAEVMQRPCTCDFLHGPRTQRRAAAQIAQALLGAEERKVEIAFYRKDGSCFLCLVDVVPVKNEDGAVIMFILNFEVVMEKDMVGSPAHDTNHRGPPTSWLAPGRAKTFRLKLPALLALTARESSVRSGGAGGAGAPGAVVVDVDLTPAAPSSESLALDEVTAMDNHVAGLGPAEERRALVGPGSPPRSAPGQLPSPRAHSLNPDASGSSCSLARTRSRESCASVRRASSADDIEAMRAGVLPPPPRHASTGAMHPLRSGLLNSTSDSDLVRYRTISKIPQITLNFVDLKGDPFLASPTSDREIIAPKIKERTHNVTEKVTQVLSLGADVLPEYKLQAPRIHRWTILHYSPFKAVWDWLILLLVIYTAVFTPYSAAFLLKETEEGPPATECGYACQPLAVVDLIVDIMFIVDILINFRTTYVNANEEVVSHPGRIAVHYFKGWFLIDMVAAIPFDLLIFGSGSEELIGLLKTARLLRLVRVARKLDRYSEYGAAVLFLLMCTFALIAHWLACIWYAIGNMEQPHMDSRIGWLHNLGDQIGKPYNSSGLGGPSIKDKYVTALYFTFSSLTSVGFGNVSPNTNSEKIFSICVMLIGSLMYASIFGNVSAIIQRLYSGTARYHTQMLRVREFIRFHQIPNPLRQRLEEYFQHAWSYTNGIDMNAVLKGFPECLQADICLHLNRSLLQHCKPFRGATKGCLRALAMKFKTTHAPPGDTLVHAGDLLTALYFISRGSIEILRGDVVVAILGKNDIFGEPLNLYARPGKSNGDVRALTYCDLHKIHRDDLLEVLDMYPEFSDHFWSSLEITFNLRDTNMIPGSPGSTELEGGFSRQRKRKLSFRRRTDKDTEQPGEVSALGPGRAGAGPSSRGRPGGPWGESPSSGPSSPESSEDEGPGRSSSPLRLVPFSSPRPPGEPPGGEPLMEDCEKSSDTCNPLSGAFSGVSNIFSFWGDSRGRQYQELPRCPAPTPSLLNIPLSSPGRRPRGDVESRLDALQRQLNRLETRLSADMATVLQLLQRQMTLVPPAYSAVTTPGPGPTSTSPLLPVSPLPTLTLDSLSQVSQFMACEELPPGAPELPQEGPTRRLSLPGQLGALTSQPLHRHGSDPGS", "assay": "Patch clamp assay (hERG tail currents, whole-cell)", "experimental": "The 35 mm culture dishes upon which cells were seeded at a density allowing single cells to be recorded were placed on the dish holder of the microscope and continuously perfused (at approximately 1 mL/min) with the bath solution described in section 4.6. All solutions applied to cells including the pipette solution were maintained at room temperature (19° C. to 30° C.). After formation of a Gigaohm seal between the patch electrodes and individual hERG stably transfected HEK 293 cells (pipette resistance range: 2.0 MS to 7.0 MS; seal resistance range: >1GΩ) the cell membrane across the pipette tip was ruptured to assure electrical access to the cell interior (whole-cell patch-configuration). In case the quality of the seal was poor, the process of seal formation was repeated with a different cell and a new pipette. As soon as a stable seal could be established, hERG outward tail currents were measured upon depolarization of the cell membrane to +20 mV for 2 s (activation of channels) from a holding potential of −80 mV and upon subsequent repolarization to −40 mV for 3 s. This voltage protocol (as shown below) was run at least 10 times at intervals of 10 s. If current density was judged to be too low for measurement, another cell was recorded.\nDuring wash-in of the test item the voltage protocol indicated above was run continuously again at 10 s intervals until the steady-state level of block was reached.\nThe IC50 was determined by fitting the dose response curve with a 2-parameter logistic function (amax=100%)."}, "[2]": {"target": "T1, human Menin and N-terminal portion of human MLL (amino acids 4-43) (Homo sapiens, UniProt O00255)", "T1 construct": "H-FL-Menin diluted to 4 nM in assay buffer", "T1 sequence (O00255 1-610)": "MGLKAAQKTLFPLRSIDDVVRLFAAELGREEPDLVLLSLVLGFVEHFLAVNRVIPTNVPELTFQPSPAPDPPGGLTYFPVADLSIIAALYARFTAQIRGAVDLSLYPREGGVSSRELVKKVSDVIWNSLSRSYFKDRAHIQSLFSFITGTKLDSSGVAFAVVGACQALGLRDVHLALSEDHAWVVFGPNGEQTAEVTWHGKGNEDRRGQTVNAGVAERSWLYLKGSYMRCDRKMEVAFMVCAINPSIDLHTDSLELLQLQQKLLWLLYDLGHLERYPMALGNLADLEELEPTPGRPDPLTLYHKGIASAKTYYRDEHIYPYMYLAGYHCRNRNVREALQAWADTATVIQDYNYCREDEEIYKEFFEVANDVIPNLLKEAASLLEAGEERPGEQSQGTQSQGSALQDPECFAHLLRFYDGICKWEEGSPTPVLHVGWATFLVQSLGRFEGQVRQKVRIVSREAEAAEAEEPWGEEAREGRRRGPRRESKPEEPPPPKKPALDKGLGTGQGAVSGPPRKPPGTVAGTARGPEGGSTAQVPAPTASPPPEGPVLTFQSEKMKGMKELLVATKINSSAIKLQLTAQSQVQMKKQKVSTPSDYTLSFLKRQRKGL", "assay": "Menin-MLL competition assay (HTRF)", "assay_type": "binding", "conditions": "1 hr incubation", "description": "Menin-MLL is a competition assay between human Menin and N-terminal portion of human MLL representing amino acids 4-43 of the protein. The interaction between Menin and MLL peptide was monitored by HTRF employing Terbium labeled anti-His6 antibody directed to the N-terminal His6-tag on recombinant Menin and FITC group covalently attached to the MLL peptide. The N-terminal fragment of MLL, retained in all MLL fusion proteins, is involved in the interactions with Menin, and this protein-protein interaction is critical for the MLL fusion proteins mediated leukemogenic transformations.\nFor IC50 determination test compounds were prepared as 10 mM DMSO stock solutions. Considering DMSO as the vehicle in the assay system. Lower sub-stocks of 50 μM were prepared from the 10 mM stock solution. To test the compounds in assay, 3.16-fold serial dilutions are made in 100% DMSO. Mid-stock of 50×compounds (50 μM) were serially diluted (3.16 fold) in 100% DMSO in Polypropylene plate. In assay plate 1 micro-litre of the previously prepared compound dilution was stamped. H-FL-Menin diluted to 4 nM in assay buffer (50 mM Tris-HCl, pH 7.4, 50 mM NaCl, freshly prepared 1 mM DTT, 0.01% BSA, 0.005% Triton X-100) was pre-incubated with 8 nM anti-His6-Tb for 30 min at room temperature. FITC-MLL-4-43 was diluted to 2 nM in assay buffer and 25 μL was dispensed into each well of the assay plate followed by addition of 25 μl of pre-incubated H-FL-Menin and anti-His6-Tb mixture. Final concentration H-FL-Menin diluted to 1 nM in assay plate with 2 nM anti-His6-Tb and 1 nM FITC-MLL-4-43. After 1 hr incubation at room temperature, the HTRF signal was measured on the Spark multi-label plate reader. Resulting data were captured as a ratio of RFU520/RFU485×1000. The max values were obtained from 0% inhibition in presence of 2% DMSO and the min. values were 100% inhibition in presence of 1 μM reference compound."}}, "data": [{"smiles": "CCN(C(=O)c1cc(F)ccc1Oc1cncnc1N1CC2(CCN(C[C@@H]3CC[C@@H](NS(C)(=O)=O)CO3)CC2)C1)C(C)C", "note": "[Example 1, N-Ethyl-5-fluoro-N-isopropyl-2-((4-(7-(((2S,5R)-5-(methylsulfonamido)tetrahydro-2H-pyran-2-yl)methyl)-2,7-diazaspiro[3.5]nonan-2-yl)pyrimidin-5-yl)oxy)benzamide]", "values": [{"measurement": "hERG % Remaining", "setting": "[1]; 10 μM compound", "value": "+++ (≥66%)"}, {"measurement": "hERG % Remaining", "setting": "[1]; 30 μM compound", "value": "++ (233% and ≤66%)"}, {"measurement": "IC50", "setting": "[2]", "value": "< 100", "unit": "nM"}]}, {"smiles": "CCN(C(=O)c1cc(F)ccc1Oc1cncnc1N1CC2(CCN(C[C@@H]3CC[C@@H](NS(=O)(=O)CC)CO3)CC2)C1)C(C)C", "note": "[Example 2, N-Ethyl-2-((4-(7-(((2S,5R)-5-(ethylsulfonamido)tetrahydro-2H-pyran-2-yl)methyl)-2,7-diazaspiro[3.5]nonan-2-yl)pyrimidin-5-yl)oxy)-5-fluoro-N-isopropylbenzamide]", "values": [{"measurement": "hERG % Remaining", "setting": "[1]; 10 μM compound", "value": "+++ (≥66%)"}, {"measurement": "hERG % Remaining", "setting": "[1]; 30 μM compound", "value": "+++ (≥66%)"}, {"measurement": "IC50", "setting": "[2]", "value": "< 100", "unit": "nM"}]}, {"smiles": "CCN(C(=O)c1cc(F)ccc1Oc1cncnc1N1CC2(CCN(C[C@@H]3CC[C@@H](NS(=O)(=O)C4CC4)CO3)CC2)C1)C(C)C", "note": "[Example 4, 2-((4-(7-(((2S,5R)-5-(Cyclopropanesulfonamido)tetrahydro-2H-pyran-2-yl)methyl)-2,7-diazaspiro[3.5]nonan-2-yl)pyrimidin-5-yl)oxy)-N-ethyl-5-fluoro-N-isopropylbenzamide]", "values": [{"measurement": "hERG % Remaining", "setting": "[1]; 10 μM compound", "value": "+++ (≥66%)"}, {"measurement": "hERG % Remaining", "setting": "[1]; 30 μM compound", "value": "+++ (≥66%)"}, {"measurement": "IC50", "setting": "[2]", "value": "< 100", "unit": "nM"}]}, {"smiles": "C[C@@H]1COC[C@H](C)N1C(=O)c1cc(F)ccc1Oc1cncnc1N1CC2(CCN(C[C@@H]3CC[C@@H](NS(=O)(=O)C4COC4)CO3)CC2)C1", "note": "[Example 27, N-((3R,6S)-6-((2-(5-(2-((3S,5R)-3,5-Dimethylmorpholine-4-carbonyl)-4-fluorophenoxy)pyrimidin-4-yl)-2,7-diazaspiro[3.5]nonan-7-yl)methyl)tetrahydro-2H-pyran-3-yl)oxetane-3-sulfonamide]", "values": [{"measurement": "IC50", "setting": "[2]", "value": "< 100", "unit": "nM"}]}, {"smiles": "C[C@@H]1COC[C@@H](C)N1C(=O)c1cc(F)ccc1Oc1cncnc1N1CC2(CCN(C[C@@H]3CC[C@@H](NS(C)(=O)=O)CO3)CC2)C1", "note": "[Example 28, N-((3R,6S)-6-((2-(5-(2-((3R,5R)-3,5-Dimethylmorpholine-4-carbonyl)-4-fluorophenoxy)pyrimidin-4-yl)-2,7-diazaspiro[3.5]nonan-7-yl)methyl)tetrahydro-2H-pyran-3-yl)methanesulfonamide]", "values": [{"measurement": "IC50", "setting": "[2]", "value": "< 100", "unit": "nM"}]}, {"smiles": "CCS(=O)(=O)N[C@@H]1CC[C@@H](CN2CCC3(CC2)CN(c2ncncc2Oc2ccc(F)cc2C(=O)N2[C@H](C)COC[C@H]2C)C3)OC1", "note": "[Example 29, N-((3R,6S)-6-((2-(5-(2-((3R,5R)-3,5-Dimethylmorpholine-4-carbonyl)-4-fluorophenoxy)pyrimidin-4-yl)-2,7-diazaspiro[3.5]nonan-7-yl)methyl)tetrahydro-2H-pyran-3-yl)ethanesulfonamide]", "values": [{"measurement": "IC50", "setting": "[2]", "value": "< 100", "unit": "nM"}]}, {"smiles": "CC(C)S(=O)(=O)N[C@@H]1CC[C@@H](CN2CCC3(CC2)CN(c2ncncc2Oc2ccc(F)cc2C(=O)N2[C@H](C)COC[C@H]2C)C3)OC1", "note": "[Example 30, N-((3R,6S)-6-((2-(5-(2-((3R,5R)-3,5-Dimethylmorpholine-4-carbonyl)-4-fluorophenoxy)pyrimidin-4-yl)-2,7-diazaspiro[3.5]nonan-7-yl)methyl)tetrahydro-2H-pyran-3-yl)propane-2-sulfonamide]", "values": [{"measurement": "IC50", "setting": "[2]", "value": "< 100", "unit": "nM"}]}, {"smiles": "C[C@@H]1COC[C@@H](C)N1C(=O)c1cc(F)ccc1Oc1cncnc1N1CC2(CCN(C[C@@H]3CC[C@@H](NS(=O)(=O)C4CC4)CO3)CC2)C1", "note": "[Example 31, N-((3R,6S)-6-((2-(5-(2-((3R,5R)-3,5-dimethylmorpholine-4-carbonyl)-4-fluorophenoxy)pyrimidin-4-yl)-2,7-diazaspiro[3.5]nonan-7-yl)methyl)tetrahydro-2H-pyran-3-yl)cyclopropanesulfonamide]", "values": [{"measurement": "IC50", "setting": "[2]", "value": "< 100", "unit": "nM"}]}, {"smiles": "C[C@@H]1COC[C@@H](C)N1C(=O)c1cc(F)ccc1Oc1cncnc1N1CC2(CCN(C[C@@H]3CC[C@@H](NS(=O)(=O)C4COC4)CO3)CC2)C1", "note": "[Example 32, N-((3R,6S)-6-((2-(5-(2-((3R,5R)-3,5-Dimethylmorpholine-4-carbonyl)-4-fluorophenoxy)pyrimidin-4-yl)-2,7-diazaspiro[3.5]nonan-7-yl)methyl)tetrahydro-2H-pyran-3-yl)oxetane-3-sulfonamide]", "values": [{"measurement": "IC50", "setting": "[2]", "value": "< 100", "unit": "nM"}]}, {"smiles": "CCS(=O)(=O)N[C@@H]1CC[C@@H](CN2CCC3(CC2)CN(c2ncncc2Oc2ccc(F)cc2C(=O)N(CCOC)C(C)C)C3)OC1", "note": "[Example 35, 2-((4-(7-(((2S,5R)-5-(Ethylsulfonamido)tetrahydro-2H-pyran-2-yl)methyl)-2,7-diazaspiro[3.5]nonan-2-yl)pyrimidin-5-yl)oxy)-5-fluoro-N-isopropyl-N-(2-methoxyethyl)benzamide]", "values": [{"measurement": "IC50", "setting": "[2]", "value": "< 100", "unit": "nM"}]}, {"smiles": "CCS(=O)(=O)N[C@@H]1CC[C@@H](CN2CCC3(CC2)CN(c2ncncc2Oc2ccc(F)cc2C(=O)N2[C@H](C)CCC[C@@H]2C)C3)OC1", "note": "[Example 36, N-((3R,6S)-6-((2-(5-(2-((2S,6R)-2,6-Dimethylpiperidine-1-carbonyl)-4-fluorophenoxy)pyrimidin-4-yl)-2,7-diazaspiro[3.5]nonan-7-yl)methyl)tetrahydro-2H-pyran-3-yl)ethanesulfonamide]", "values": [{"measurement": "IC50", "setting": "[2]", "value": "< 100", "unit": "nM"}]}, {"smiles": "CCNC(=O)N[C@@H]1CC[C@@H](CN2CCC3(CC2)CN(c2ncncc2Oc2ccc(F)cc2C(=O)N(CC)C(C)C)C3)OC1", "note": "[Example 39, N-Ethyl-2-((4-(7-(((2S,5R)-5-(3-ethylureido)tetrahydro-2H-pyran-2-yl)methyl)-2,7-diazaspiro[3.5]nonan-2-yl)pyrimidin-5-yl)oxy)-5-fluoro-N-isopropylbenzamide]", "values": [{"measurement": "IC50", "setting": "[2]", "value": "< 100", "unit": "nM"}]}, {"smiles": "C[C@H]1COCCN1C(=O)c1cc(F)ccc1Oc1cncnc1N1CC2(CCN(C[C@@H]3CC[C@@H](NS(=O)(=O)C4CC4)CO3)CC2)C1", "note": "[Example 40, N-((3R,6S)-6-((2-(5-(4-Fluoro-2-((S)-3-methylmorpholine-4-carbonyl)phenoxy)pyrimidin-4-yl)-2,7-diazaspiro[3.5]nonan-7-yl)methyl)tetrahydro-2H-pyran-3-yl)cyclopropanesulfonamide]", "values": [{"measurement": "IC50", "setting": "[2]", "value": "< 100", "unit": "nM"}]}, {"smiles": "CCN(C(=O)c1cc(F)ccc1Oc1cncnc1N1CC2(CCN(C[C@@H]3CC[C@@H](NC(=O)NCC4CC4)CO3)CC2)C1)C(C)C", "note": "[Example 42, 2-((4-(7-(((2S,5R)-5-(3-(Cyclopropylmethyl)ureido)tetrahydro-2H-pyran-2-yl)methyl)-2,7-diazaspiro[3.5]nonan-2-yl)pyrimidin-5-yl)oxy)-N-ethyl-5-fluoro-N-isopropylbenzamide]", "values": [{"measurement": "IC50", "setting": "[2]", "value": "< 100", "unit": "nM"}]}, {"smiles": "CCS(=O)(=O)N[C@@H]1CC[C@@H](CN2CCC3(CC2)CN(c2ncncc2Oc2ccc(F)cc2C(=O)N(C(C)C)[C@@H]2CCOC2)C3)OC1", "note": "[Example 46, 2-((4-(7-(((2S,5R)-5-(Ethylsulfonamido)tetrahydro-2H-pyran-2-yl)methyl)-2,7-diazaspiro[3.5]nonan-2-yl)pyrimidin-5-yl)oxy)-5-fluoro-N-isopropyl-N-((R)-tetrahydrofuran-3-yl)benzamide]", "values": [{"measurement": "IC50", "setting": "[2]", "value": "< 100", "unit": "nM"}]}, {"smiles": "CCS(=O)(=O)N[C@@H]1CC[C@@H](CN2CCC3(CC2)CN(c2ncncc2Oc2ccc(F)cc2C(=O)N(C(C)C)C2COC2)C3)OC1", "note": "[Example 48, 2-((4-(7-(((2S,5R)-5-(Ethylsulfonamido)tetrahydro-2H-pyran-2-yl)methyl)-2,7-diazaspiro[3.5]nonan-2-yl)pyrimidin-5-yl)oxy)-5-fluoro-N-isopropyl-N-(oxetan-3-yl)benzamide]", "values": [{"measurement": "IC50", "setting": "[2]", "value": "< 100", "unit": "nM"}]}, {"smiles": "COCCN(C(=O)c1cc(F)ccc1Oc1cncnc1N1CC2(CCN(C[C@@H]3CC[C@@H](NS(=O)(=O)C4CC4)CO3)CC2)C1)C(C)C", "note": "[Example 51, 2-((4-(7-(((2S,5R)-5-(Cyclopropanesulfonamido)tetrahydro-2H-pyran-2-yl)methyl)-2,7-diazaspiro[3.5]nonan-2-yl)pyrimidin-5-yl)oxy)-5-fluoro-N-isopropyl-N-(2-methoxyethyl)benzamide]", "values": [{"measurement": "IC50", "setting": "[2]", "value": "< 100", "unit": "nM"}]}]}
